# Results from PubChem BioAssay (NCI).
#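 Here, GI50 denotes the concentration required for 50% inhibition of growth. Definition used: TGI = concentration required for complete inhibition of growth.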
# Legend:
# Assay in all cases: NCI-60 cell line screen, 384-well format
# NCI-H23 lung = test system: NCI-H23 lung
# U251 glioblastoma = test system: U251 glioblastoma
# SK-MEL-28 melanoma = test system: SK-MEL-28 melanoma
# SK-MEL-5 melanoma = test system: SK-MEL-5 melanoma
# CAKI-1 renal = test system: CAKI-1 renal
# M14 melanoma = test system: M14 melanoma
# MOLT-4 leukemia = test system: MOLT-4 leukemia
# COLO 205 colon = test system: COLO 205 colon
# KM12 colon = test system: KM12 colon
# HOP-92 NSCLC = test system: HOP-92 NSCLC
# DU-145 prostate = test system: DU-145 prostate
# NCI/ADR-RES ovarian = test system: NCI/ADR-RES ovarian
# UACC-257 melanoma = test system: UACC-257 melanoma
# A549 NSCLC = test system: A549 NSCLC
# BT-549 breast = test system: BT-549 breast
# SNB-19 CNS = test system: SNB-19 CNS
# LOX IMVI melanoma = test system: LOX IMVI melanoma
# UO-31 renal = test system: UO-31 renal
# SK-OV-3 ovarian = test system: SK-OV-3 ovarian
# HL-60(TB) leukemia = test system: HL-60(TB) leukemia
# SF-268 CNS = test system: SF-268 CNS
# SK-MEL-2 melanoma = test system: SK-MEL-2 melanoma
# NCI-H226 lung = test system: NCI-H226 lung
# HCT-116 colon = test system: HCT-116 colon
# 786-0 renal = test system: 786-0 renal
# OVCAR-3 ovarian = test system: OVCAR-3 ovarian
# NCI-H460 NSCLC = test system: NCI-H460 NSCLC
# SN12C renal = test system: SN12C renal
# UACC-62 melanoma = test system: UACC-62 melanoma
# HCT-15 colon = test system: HCT-15 colon
# HCC-2998 colon = test system: HCC-2998 colon
# MCF7 breast = test system: MCF7 breast
# OVCAR-4 ovarian = test system: OVCAR-4 ovarian
# HOP-62 NSCLC = test system: HOP-62 NSCLC
# MDA-MB-468 breast = test system: MDA-MB-468 breast
# TK-10 renal = test system: TK-10 renal
# ACHN renal = test system: ACHN renal
# OVCAR-8 ovarian = test system: OVCAR-8 ovarian
# K-562 leukemia = test system: K-562 leukemia
# A498 renal = test system: A498 renal
# OVCAR-5 ovarian = test system: OVCAR-5 ovarian
# SR leukemia = test system: SR leukemia
# RXF 393 renal = test system: RXF 393 renal
# MDA-MB-435 melanoma = test system: MDA-MB-435 melanoma
# SW-620 colon = test system: SW-620 colon
# SF-539 CNS = test system: SF-539 CNS
# MALME-3M melanoma = test system: MALME-3M melanoma
# IGROV1 ovarian = test system: IGROV1 ovarian
# MDA-MB-231 breast = test system: MDA-MB-231 breast
# CCRF-CEM leukemia = test system: CCRF-CEM leukemia
# PC-3 prostate = test system: PC-3 prostate
# NCI-H322M lung = test system: NCI-H322M lung
# T-47D breast = test system: T-47D breast
# SF-295 CNS = test system: SF-295 CNS
# NCI-H522 lung = test system: NCI-H522 lung
# HT29 colon = test system: HT29 colon
compound,measurement,setting,value
N[C@@H](CSSC[C@H](N)C(=O)N1CCn2cc(-c3ccccc3)nc2[C@@H]1CC1CCCCC1)C(=O)N1CCn2cc(-c3ccccc3)nc2[C@@H]1CC1CCCCC1,GI50,NCI-H23 lung,2120 nM
same,TGI,NCI-H23 lung,4210 nM
same,GI50,U251 glioblastoma,571 nM
same,TGI,U251 glioblastoma,1890 nM
same,GI50,SK-MEL-28 melanoma,146 nM
same,TGI,SK-MEL-28 melanoma,1030 nM
same,GI50,SK-MEL-5 melanoma,194 nM
same,TGI,SK-MEL-5 melanoma,1300 nM
same,GI50,CAKI-1 renal,1930 nM
same,TGI,CAKI-1 renal,3560 nM
same,GI50,M14 melanoma,146 nM
same,TGI,M14 melanoma,355 nM
same,GI50,MOLT-4 leukemia,140 nM
same,TGI,MOLT-4 leukemia,271 nM
same,GI50,COLO 205 colon,1390 nM
same,TGI,COLO 205 colon,2700 nM
same,GI50,KM12 colon,312 nM
same,TGI,KM12 colon,1550 nM
same,GI50,HOP-92 NSCLC,1980 nM
same,TGI,HOP-92 NSCLC,3440 nM
same,GI50,DU-145 prostate,1850 nM
same,TGI,DU-145 prostate,6340 nM
same,GI50,NCI/ADR-RES ovarian,2350 nM
same,TGI,NCI/ADR-RES ovarian,5410 nM
same,GI50,UACC-257 melanoma,257 nM
same,TGI,UACC-257 melanoma,702 nM
same,GI50,A549 NSCLC,1260 nM
same,TGI,A549 NSCLC,2530 nM
same,GI50,BT-549 breast,1840 nM
same,TGI,BT-549 breast,3250 nM
same,GI50,SNB-19 CNS,586 nM
same,TGI,SNB-19 CNS,1870 nM
same,GI50,LOX IMVI melanoma,1330 nM
same,TGI,LOX IMVI melanoma,2620 nM
same,GI50,UO-31 renal,2070 nM
same,TGI,UO-31 renal,3960 nM
same,GI50,SK-OV-3 ovarian,242 nM
same,TGI,SK-OV-3 ovarian,1800 nM
same,GI50,HL-60(TB) leukemia,796 nM
same,TGI,HL-60(TB) leukemia,1990 nM
same,GI50,SF-268 CNS,283 nM
same,TGI,SF-268 CNS,1160 nM
same,GI50,SK-MEL-2 melanoma,184 nM
same,TGI,SK-MEL-2 melanoma,524 nM
same,GI50,NCI-H226 lung,1820 nM
same,TGI,NCI-H226 lung,3260 nM
same,GI50,HCT-116 colon,215 nM
same,TGI,HCT-116 colon,490 nM
same,GI50,786-0 renal,1510 nM
same,TGI,786-0 renal,2930 nM
same,GI50,OVCAR-3 ovarian,1100 nM
same,TGI,OVCAR-3 ovarian,2310 nM
same,GI50,NCI-H460 NSCLC,288 nM
same,TGI,NCI-H460 NSCLC,1590 nM
same,GI50,SN12C renal,1560 nM
same,TGI,SN12C renal,2910 nM
same,GI50,UACC-62 melanoma,176 nM
same,TGI,UACC-62 melanoma,349 nM
same,GI50,HCT-15 colon,1580 nM
same,TGI,HCT-15 colon,2930 nM
same,GI50,HCC-2998 colon,1700 nM
same,TGI,HCC-2998 colon,3080 nM
same,GI50,MCF7 breast,1460 nM
same,TGI,MCF7 breast,2790 nM
same,GI50,OVCAR-4 ovarian,1940 nM
same,TGI,OVCAR-4 ovarian,3380 nM
same,GI50,HOP-62 NSCLC,1250 nM
same,TGI,HOP-62 NSCLC,2530 nM
same,GI50,MDA-MB-468 breast,1080 nM
same,TGI,MDA-MB-468 breast,2280 nM
same,GI50,TK-10 renal,1750 nM
same,TGI,TK-10 renal,3150 nM
same,GI50,ACHN renal,1950 nM
same,TGI,ACHN renal,3390 nM
same,GI50,OVCAR-8 ovarian,1620 nM
same,TGI,OVCAR-8 ovarian,2980 nM
same,GI50,K-562 leukemia,551 nM
same,TGI,K-562 leukemia,1740 nM
same,GI50,A498 renal,1630 nM
same,TGI,A498 renal,3000 nM
same,GI50,OVCAR-5 ovarian,1710 nM
same,TGI,OVCAR-5 ovarian,3150 nM
same,GI50,SR leukemia,220 nM
same,TGI,SR leukemia,627 nM
same,TGI,RXF 393 renal,1090 nM
same,GI50,MDA-MB-435 melanoma,677 nM
same,TGI,MDA-MB-435 melanoma,1930 nM
same,GI50,SW-620 colon,1020 nM
same,TGI,SW-620 colon,2200 nM
same,GI50,SF-539 CNS,1720 nM
same,TGI,SF-539 CNS,3100 nM
same,GI50,MALME-3M melanoma,1140 nM
same,TGI,MALME-3M melanoma,2360 nM
same,GI50,IGROV1 ovarian,1600 nM
same,TGI,IGROV1 ovarian,3310 nM
same,GI50,MDA-MB-231 breast,1630 nM
same,TGI,MDA-MB-231 breast,2990 nM
same,GI50,CCRF-CEM leukemia,294 nM
same,TGI,CCRF-CEM leukemia,1270 nM
same,GI50,PC-3 prostate,1830 nM
same,TGI,PC-3 prostate,3260 nM
same,GI50,NCI-H322M lung,2470 nM
same,TGI,NCI-H322M lung,5640 nM
same,GI50,T-47D breast,155 nM
same,TGI,T-47D breast,550 nM
same,GI50,SF-295 CNS,1940 nM
same,TGI,SF-295 CNS,3360 nM
same,GI50,NCI-H522 lung,1610 nM
same,TGI,NCI-H522 lung,2970 nM
same,GI50,HT29 colon,1470 nM
same,TGI,HT29 colon,2840 nM
